{"source": "patent US20170007537A1", "about": "“PHARMACEUTICAL COMPOSITIONS OF ASENAPINE” (HETERO RESEARCH FOUNDATION, priority 2014, published 2017)", "origin": "cited, not measured here", "settings": "when swallowed; oral tablet formulation", "data": [{"compound": "CN1C[C@H]2c3ccccc3Oc3ccc(Cl)cc3[C@@H]2C1.O=C(O)/C=C\\C(=O)O", "note": "(racemic) [asenapine, (3aRS,12bRS)-5-Chloro-2-methyl-2,3,3a,12b-tetrahydro-1Hdibenzo[2,3:6,7]oxepino[4,5-c]pyrrole(2Z)-2-butenedioate (1:1)]", "values": [{"measurement": "absolute bioavailability", "result": "< 2", "unit": "%"}]}]}
